Measurements as given in patent US20240189373A1, “BACTERIOPHAGE COMPOSITIONS FOR TREATING STAP[…]” (priority 2020, published 2024).

Tested on: S. aureus strains
Assay: microbe, parasite or virus in culture
Type: cell-based
Procedure: Grey boxes indicate lines on graph depicted in FIG. 5B. […] Vancomycin, 16 μg/mL; AP-SA02, 0.1 pg/mL.
FIG. 6A is data showing bacterial growth measured by turbidity (absorbance at 600 nm) in the presence of AP-SA02 and vancomycin in a checkerboard assay. Grey boxes show lines on graph depicted in FIG. 6B. […] Vancomycin, 2 μg/mL.
Standard therapy for subjects with a S. aureus infection includes vancomycin and daptomycin. Since subjects who receive AP-SA02 are likely to be on these therapies, the effect of AP-SA02 on these antibiotics and vice versa was assessed. Using the standard checkerboard assay, the minimum inhibitory concentration of each antimicrobial alone or in combination with each other, was used to calculate whether two antimicrobials are synergistic, antagonistic, or indifferent (Table 3).

For CN[C@H](CC(C)C)C(=O)N[C@H]1C(=O)N[C@@H](CC(N)=O)C(=O)N[C@H]2C(=O)N[C@H]3C(=O)N[C@H](C(=O)N[C@H](C(=O)O)c4cc(O)cc(O)c4-c4cc3ccc4O)[C@H](O)c3ccc(c(Cl)c3)Oc3cc2cc(c3O[C@@H]2O[C@H](CO)[C@@H](O)[C@H](O)[C@H]2O[C@H]2C[C@](C)(N)[C@H](O)[C@H](C)O2)Oc2ccc(cc2Cl)[C@H]1O [vancomycin], the MIC (Staphylococcus aureus) was > 16 µg/mL and the “breakpoint for vancomycin in the presence of phage” value (changed from resistant or intermediate to the sensitive range) was 0.5 to 2 µg/mL.
